How the values were obtained:
[1] = characteristic curvature (Cc), HLD framework; format: physicochemical; conditions: obtained following procedure of Nouraei et al. (WO 2022/140843)
[2] = cited from earlier work

Compound	characteristic curvature (Cc) [1]	water solubility [2]
CCCCCc1cc(O)c2c(c1)OC(C)(C)[C@@H]1CCC(C)=C[C@@H]21 [THC, tetrahydrocannabinol]	+2.7	
C=C(C)[C@@H]1CCC(C)=C[C@H]1c1c(O)cc(CCCCC)cc1O [CBD, cannabidiol]		0.0013 wt %
C=CCc1ccc(O)c(OC)c1 [Eugenol, eugenol]		0.14 wt %
